Source: ChEMBL document CHEMBL1201862, “PubChem BioAssay data set” (2004)
Activity calls are given as the source filed them.

Legend:
[1] = StAR promoter reporter inhibition counter-screen, dose response, counter-screen for LRH-1 inverse agonist project, cell-based, luminescence, luciferase reporter (AID 651969); assay type: functional
Steroidogenic factor 1 = Steroidogenic factor 1 (Homo sapiens, UniProt Q13285); test: Counterscreen for inverse agonists of the liver receptor homolog-1 (LRH-1; NR5A2): Luminescence-based cell-based high throughput dose response assay to identify inverse agonists of the Steroidogenic Factor 1 Nuclear Receptor (SF1; NR5A1).; assay type: functional
[2] = molecular target: Nuclear receptor subfamily 5 group A member 2 (Homo sapiens, UniProt O00482); assay type: functional, cell-based;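 note: HEK293T cells transfected with LRH-1 and a StAR promoter luciferase reporter; potency for inhibitors that lower LRH-1 driven reporter light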
Phospholipase A2 = Phospholipase A2 (Homo sapiens, UniProt P04054); assay type: functional;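 note: confirmatory dose-response counterscreen on phospholipase A2, testing hits that came from an ultra-high-throughput screen for ATG4B inhibitors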
Cysteine protease ATG4B = molecular target: T1, Cysteine protease ATG4B (Homo sapiens, UniProt Q9Y4P1); assay type: functional;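 note: Fluorescence-based dose-response confirmation assay measuring inhibition of ATG4B activity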
T1 sequence (Q9Y4P1 whole entry): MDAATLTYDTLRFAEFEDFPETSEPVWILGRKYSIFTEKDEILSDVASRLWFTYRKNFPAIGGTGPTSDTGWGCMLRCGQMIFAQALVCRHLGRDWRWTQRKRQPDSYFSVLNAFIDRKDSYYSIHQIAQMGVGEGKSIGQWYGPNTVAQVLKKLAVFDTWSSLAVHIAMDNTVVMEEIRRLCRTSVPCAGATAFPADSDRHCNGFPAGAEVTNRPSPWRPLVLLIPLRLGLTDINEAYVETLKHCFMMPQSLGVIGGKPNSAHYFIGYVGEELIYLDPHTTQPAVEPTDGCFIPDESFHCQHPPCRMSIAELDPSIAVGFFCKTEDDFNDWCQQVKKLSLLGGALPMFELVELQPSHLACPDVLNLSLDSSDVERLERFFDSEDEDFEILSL

[3] = molecular target: Luciferin 4-monooxygenase (Photinus pyralis, UniProt P08659); test: firefly luciferase enzyme inhibitors, dose response, biochemical, luminescence (AID 1891)
[4] = Luminescence Cell-Based Dose Confirmation HTS to Identify Inhibitors of Platelet Dense Granule Release. [Related pubchem assays: 1663 (Primary HTS), 1678 (Summary of Project)]; assay type: functional
[5] = molecular target: T2, Sentrin-specific protease 8 (Homo sapiens, UniProt Q96LD8); assay type: functional;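 note: luminescence read-out of SENP8 inhibition, dose-response confirmation following an ultra-high-throughput screen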
T2 sequence (Q96LD8 whole entry): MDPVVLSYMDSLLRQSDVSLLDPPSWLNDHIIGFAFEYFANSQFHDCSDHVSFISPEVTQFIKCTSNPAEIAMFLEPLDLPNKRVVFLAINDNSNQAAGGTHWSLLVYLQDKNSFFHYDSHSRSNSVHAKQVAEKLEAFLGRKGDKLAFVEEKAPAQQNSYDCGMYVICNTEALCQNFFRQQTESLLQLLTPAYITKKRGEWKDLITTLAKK

[6] = molecular target: T3, Sentrin-specific protease 6 (Homo sapiens, UniProt Q9GZR1); assay type: functional;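 note: Luminescence-based dose-response confirmatory assay of SENP6 inhibition, following up an ultra-high-throughput screen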
T3 sequence (Q9GZR1 whole entry): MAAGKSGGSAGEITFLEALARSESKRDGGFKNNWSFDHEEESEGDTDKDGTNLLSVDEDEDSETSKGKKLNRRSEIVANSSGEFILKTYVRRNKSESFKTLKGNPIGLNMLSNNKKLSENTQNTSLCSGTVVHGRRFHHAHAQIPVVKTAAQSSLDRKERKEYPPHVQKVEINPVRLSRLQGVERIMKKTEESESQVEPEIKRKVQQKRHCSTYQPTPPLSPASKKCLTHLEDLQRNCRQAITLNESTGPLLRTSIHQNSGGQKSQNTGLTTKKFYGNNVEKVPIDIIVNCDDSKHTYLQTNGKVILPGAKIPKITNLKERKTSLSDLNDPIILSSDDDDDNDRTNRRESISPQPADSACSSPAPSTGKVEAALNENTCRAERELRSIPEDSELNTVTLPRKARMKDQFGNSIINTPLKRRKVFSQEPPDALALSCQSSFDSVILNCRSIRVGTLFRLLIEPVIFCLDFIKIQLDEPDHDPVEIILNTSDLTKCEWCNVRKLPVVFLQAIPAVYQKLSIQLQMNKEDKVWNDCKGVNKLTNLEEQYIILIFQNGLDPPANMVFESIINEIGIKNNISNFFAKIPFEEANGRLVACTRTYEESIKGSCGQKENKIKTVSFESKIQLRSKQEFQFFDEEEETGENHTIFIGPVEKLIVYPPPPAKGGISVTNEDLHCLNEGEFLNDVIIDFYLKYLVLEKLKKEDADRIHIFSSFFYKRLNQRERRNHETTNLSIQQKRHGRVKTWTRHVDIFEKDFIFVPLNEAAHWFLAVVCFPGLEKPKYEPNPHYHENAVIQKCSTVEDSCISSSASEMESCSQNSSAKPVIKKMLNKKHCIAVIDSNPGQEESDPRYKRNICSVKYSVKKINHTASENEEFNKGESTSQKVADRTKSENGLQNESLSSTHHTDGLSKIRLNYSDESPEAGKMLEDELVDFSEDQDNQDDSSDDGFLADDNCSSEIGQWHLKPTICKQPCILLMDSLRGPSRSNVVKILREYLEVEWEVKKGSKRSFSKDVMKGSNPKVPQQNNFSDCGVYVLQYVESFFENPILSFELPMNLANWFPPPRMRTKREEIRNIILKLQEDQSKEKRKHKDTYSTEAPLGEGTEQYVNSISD

[7] = Luminescence Cell-Based Dose Response HTS to Identify Activators of Luciferase Translation or Activity in H4 […] Cells. [Related pubchem assays: 1829 (Project Summary), 1814 (Primary HTS)]; assay type: functional
Caspase-3 = molecular target: T4, Caspase-3 (Homo sapiens, UniProt P42574); assay type: functional;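 note: Dose-response selectivity test against caspase-3 for candidate inhibitors of sentrin-specific proteases (SENPs)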
T4 sequence (P42574 whole entry): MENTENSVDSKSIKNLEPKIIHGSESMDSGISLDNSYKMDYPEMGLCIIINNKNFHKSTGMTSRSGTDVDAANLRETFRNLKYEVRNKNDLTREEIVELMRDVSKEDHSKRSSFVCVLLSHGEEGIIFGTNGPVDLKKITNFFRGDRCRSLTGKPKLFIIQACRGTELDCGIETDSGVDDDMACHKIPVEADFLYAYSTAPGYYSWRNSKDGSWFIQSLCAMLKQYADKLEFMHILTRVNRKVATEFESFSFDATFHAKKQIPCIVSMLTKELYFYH

[8] = molecular target: T5, Sentrin-specific protease 7 (Homo sapiens, UniProt Q9BQF6); assay type: functional;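 note: Luminescence-based dose-response confirmation of ultra-high-throughput screening hits, measuring inhibition of SENP7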
T5 sequence (Q9BQF6 whole entry): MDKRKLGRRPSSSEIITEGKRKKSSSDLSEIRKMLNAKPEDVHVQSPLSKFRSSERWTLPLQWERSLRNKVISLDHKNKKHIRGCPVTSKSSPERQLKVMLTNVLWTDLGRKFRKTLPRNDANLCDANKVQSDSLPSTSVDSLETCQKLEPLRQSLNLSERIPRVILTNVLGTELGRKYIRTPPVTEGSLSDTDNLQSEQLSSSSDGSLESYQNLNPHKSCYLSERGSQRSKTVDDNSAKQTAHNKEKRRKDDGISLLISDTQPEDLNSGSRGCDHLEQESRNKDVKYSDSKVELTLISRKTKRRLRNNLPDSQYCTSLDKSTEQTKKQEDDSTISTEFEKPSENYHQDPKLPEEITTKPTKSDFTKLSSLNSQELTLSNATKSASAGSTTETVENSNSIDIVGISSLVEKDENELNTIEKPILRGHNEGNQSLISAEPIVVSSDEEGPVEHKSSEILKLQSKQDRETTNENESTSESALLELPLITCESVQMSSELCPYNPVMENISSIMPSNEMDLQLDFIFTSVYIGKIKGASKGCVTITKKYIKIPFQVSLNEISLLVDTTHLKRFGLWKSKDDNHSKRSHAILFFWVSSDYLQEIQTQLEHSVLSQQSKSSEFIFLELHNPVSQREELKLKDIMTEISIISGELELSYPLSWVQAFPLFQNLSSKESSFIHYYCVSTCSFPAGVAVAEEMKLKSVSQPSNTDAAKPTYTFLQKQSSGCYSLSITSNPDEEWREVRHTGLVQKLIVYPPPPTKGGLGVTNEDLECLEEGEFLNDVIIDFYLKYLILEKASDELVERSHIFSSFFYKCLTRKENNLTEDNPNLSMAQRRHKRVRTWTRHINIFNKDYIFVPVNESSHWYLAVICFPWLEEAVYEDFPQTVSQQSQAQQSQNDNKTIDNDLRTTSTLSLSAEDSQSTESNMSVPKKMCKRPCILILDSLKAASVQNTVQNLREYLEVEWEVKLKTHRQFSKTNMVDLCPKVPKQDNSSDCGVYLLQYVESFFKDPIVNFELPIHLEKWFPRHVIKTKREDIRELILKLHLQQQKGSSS

H4 = test: Luminescence Cell-Based Dose Response HTS to Identify Activators of 5'UTR Stem-Loop Driven Prion Protein mRNA Translation in H4 Neuroglioblastoma Cells. [Related pubchem assays: 1829 (Project Summary), 1814 (Primary HTS)]; assay type: functional; conditions: Homo sapiens
[9] = molecular target: Tyrosine-protein phosphatase non-receptor type 11 (Homo sapiens, UniProt Q06124); test: SHP2 phosphatase inhibition, dose response, selectivity assay for STEP inhibitor project, biochemical (AID 602367); assay type: functional; conditions: read-out: IC50_Mean
[10] = molecular target: Dual specificity protein phosphatase 3 (Homo sapiens, UniProt P51452); test: VHR phosphatase inhibition, dose response, selectivity assay for STEP inhibitor project, biochemical (AID 602374); assay type: functional; conditions: read-out: IC50_Mean
[11] = molecular target: Tyrosine-protein phosphatase non-receptor type 5 (Homo sapiens, UniProt P54829); test: STEP phosphatase inhibitors, confirmation, biochemical, fluorescence intensity, uHTS hits (AID 602372); assay type: functional; conditions: read-out: IC50_Mean
BJ [12] = test: cytotoxicity toward Ras-transformed BJeLR fibroblasts, dose response, cell-based, alamar blue fluorescence, cherrypicked samples (AID 2631); assay type: functional; conditions: Homo sapiens;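 note: confirmatory dose-response assay in RAS-dependent BJ fibroblasts engineered with TERT, LT and ST, with cytotoxicity read by fluorescence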
Vero = test: cells; assay type: functional; conditions: Chlorocebus sabaeus
BJ [13] = test: cytotoxicity toward BJ-TERT-LT-ST fibroblasts, dose response, cell-based, RAS-independent, luminescence (AID 1935); assay type: functional; conditions: Homo sapiens;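 note: BJ fibroblasts immortalized with TERT plus LT and ST oncogenes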
BJ [14] = test: cytotoxicity toward BJ-TERT fibroblasts, dose response, cell-based, RAS-independent, luminescence (AID 1933); assay type: functional; conditions: Homo sapiens
BJ [15] = test: cells; assay type: functional, cell-based; conditions: Homo sapiens
[16] = cytotoxicity toward DRD oncogenic fibroblasts, dose response, cell-based, non-viral oncogenic, luminescence (AID 1934); assay type: functional; conditions: Homo sapiens

Sequence of Phospholipase A2 (P04054 whole entry): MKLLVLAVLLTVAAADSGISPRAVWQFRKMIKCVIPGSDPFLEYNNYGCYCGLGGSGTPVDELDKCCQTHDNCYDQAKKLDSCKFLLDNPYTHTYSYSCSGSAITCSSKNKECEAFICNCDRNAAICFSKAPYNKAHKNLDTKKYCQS
Sequence of Nuclear receptor subfamily 5 group A member 2 (O00482 whole entry): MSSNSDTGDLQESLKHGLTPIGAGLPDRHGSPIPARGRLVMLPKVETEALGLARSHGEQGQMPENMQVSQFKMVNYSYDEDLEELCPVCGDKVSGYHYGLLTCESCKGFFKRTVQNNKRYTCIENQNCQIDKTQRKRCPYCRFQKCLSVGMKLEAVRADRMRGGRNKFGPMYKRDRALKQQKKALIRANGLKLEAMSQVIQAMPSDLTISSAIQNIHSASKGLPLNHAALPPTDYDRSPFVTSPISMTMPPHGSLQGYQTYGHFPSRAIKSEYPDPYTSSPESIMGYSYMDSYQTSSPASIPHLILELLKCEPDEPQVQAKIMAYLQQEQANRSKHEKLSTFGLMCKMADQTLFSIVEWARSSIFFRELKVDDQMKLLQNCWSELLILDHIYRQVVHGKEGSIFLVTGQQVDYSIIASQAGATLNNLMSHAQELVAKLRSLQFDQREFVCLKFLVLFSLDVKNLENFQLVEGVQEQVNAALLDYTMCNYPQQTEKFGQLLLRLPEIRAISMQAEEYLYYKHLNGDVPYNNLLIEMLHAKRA
Sequence of Steroidogenic factor 1 (Q13285 whole entry): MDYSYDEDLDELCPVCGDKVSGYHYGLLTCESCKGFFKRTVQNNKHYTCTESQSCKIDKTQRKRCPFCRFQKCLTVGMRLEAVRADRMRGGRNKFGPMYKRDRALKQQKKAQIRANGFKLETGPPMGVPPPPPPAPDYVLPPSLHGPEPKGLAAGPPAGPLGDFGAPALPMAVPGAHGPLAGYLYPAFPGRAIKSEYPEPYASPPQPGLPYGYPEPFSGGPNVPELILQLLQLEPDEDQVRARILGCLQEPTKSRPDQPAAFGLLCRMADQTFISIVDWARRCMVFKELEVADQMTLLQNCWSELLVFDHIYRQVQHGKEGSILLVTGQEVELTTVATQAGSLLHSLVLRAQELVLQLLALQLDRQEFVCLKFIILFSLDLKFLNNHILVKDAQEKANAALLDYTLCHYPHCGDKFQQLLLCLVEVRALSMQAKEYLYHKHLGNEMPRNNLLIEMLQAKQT
Sequence of Tyrosine-protein phosphatase non-receptor type 5 (P54829 whole entry): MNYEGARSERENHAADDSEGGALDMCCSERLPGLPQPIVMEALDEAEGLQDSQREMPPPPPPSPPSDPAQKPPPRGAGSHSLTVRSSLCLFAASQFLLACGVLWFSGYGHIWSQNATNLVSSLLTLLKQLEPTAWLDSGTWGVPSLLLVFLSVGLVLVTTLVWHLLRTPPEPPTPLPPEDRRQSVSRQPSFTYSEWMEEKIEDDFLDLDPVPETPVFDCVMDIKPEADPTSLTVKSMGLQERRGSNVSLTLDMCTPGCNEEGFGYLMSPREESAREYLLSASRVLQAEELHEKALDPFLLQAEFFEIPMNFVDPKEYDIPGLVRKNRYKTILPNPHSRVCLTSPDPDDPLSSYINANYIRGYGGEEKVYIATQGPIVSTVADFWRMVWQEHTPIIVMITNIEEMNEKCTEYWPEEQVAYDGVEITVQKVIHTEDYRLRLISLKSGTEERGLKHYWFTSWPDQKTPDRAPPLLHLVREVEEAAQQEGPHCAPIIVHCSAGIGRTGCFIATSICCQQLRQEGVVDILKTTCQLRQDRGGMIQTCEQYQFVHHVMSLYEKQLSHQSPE
Sequence of Luciferin 4-monooxygenase (P08659 whole entry): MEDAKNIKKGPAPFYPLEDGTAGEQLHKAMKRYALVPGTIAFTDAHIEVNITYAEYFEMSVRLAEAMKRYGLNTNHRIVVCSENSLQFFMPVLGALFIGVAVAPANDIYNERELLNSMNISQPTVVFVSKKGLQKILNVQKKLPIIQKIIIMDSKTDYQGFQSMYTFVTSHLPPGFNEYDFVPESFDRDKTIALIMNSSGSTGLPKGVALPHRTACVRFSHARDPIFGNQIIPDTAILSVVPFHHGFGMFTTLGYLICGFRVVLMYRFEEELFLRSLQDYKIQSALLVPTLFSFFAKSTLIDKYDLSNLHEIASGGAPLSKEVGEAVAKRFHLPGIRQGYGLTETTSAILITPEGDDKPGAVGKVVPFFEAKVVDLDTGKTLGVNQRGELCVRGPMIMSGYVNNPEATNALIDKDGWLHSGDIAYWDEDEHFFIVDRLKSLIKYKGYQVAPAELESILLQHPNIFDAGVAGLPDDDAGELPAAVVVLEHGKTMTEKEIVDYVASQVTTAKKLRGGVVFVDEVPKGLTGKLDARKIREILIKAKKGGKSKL
Sequence of Dual specificity protein phosphatase 3 (P51452 whole entry): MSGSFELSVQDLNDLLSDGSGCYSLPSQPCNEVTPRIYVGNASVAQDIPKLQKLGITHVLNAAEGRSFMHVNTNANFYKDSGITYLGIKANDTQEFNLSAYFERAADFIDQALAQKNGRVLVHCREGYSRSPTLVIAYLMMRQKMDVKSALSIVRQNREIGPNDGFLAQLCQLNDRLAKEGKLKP
Sequence of Tyrosine-protein phosphatase non-receptor type 11 (Q06124 whole entry): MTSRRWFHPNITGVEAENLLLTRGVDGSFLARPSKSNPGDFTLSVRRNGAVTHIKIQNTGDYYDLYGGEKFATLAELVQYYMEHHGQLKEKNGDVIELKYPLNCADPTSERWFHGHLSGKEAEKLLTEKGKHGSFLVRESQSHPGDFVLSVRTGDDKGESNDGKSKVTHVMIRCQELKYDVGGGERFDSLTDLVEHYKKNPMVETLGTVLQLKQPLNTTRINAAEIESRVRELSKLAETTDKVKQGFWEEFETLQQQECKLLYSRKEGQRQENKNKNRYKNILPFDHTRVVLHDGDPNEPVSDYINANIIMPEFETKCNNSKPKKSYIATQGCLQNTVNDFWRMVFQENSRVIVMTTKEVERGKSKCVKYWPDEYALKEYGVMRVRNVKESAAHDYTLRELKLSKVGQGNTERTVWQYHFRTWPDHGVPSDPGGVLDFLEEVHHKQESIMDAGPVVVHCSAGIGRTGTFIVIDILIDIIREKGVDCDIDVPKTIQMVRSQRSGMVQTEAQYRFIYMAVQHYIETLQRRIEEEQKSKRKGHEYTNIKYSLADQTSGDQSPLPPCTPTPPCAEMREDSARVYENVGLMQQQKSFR

SMILES: Cc1c(NC(=S)NC(=O)c2ccc(Cl)cc2)c(=O)n(-c2ccccc2)n1C
- IC50 [1]: 35.9 µM (inactive)
- IC50 (Steroidogenic factor 1): 35.9 µM (inactive)
- IC50 [2]: 12 µM (inactive)

SMILES: Cc1cccc(OCC(=O)Nc2ccccc2-c2ccccc2)c1
- IC50 (Phospholipase A2): 11.9 µM (active)
- IC50 (Cysteine protease ATG4B): 11.5 µM (active)
- EC50 [3]: 73.8 µM (active)
- EC50 [4]: > 112 µM (not active)

SMILES: Clc1nnc(N/N=C/c2ccccc2)c2ccccc12
- IC50 [5]: 8.2 µM (active)
- IC50 [6]: 5.57 µM (active)
- EC50 [7]: 0.694 µM (active)
- IC50 (Caspase-3): 6.38 µM (active)
- IC50 [8]: 2.83 µM (active)
- EC50 (H4): 5.27 µM (active)

SMILES: COCCCN(C(S)=Nc1c(C)cc(C)cc1C)C(C)c1ccccn1 (centres undefined)
- IC50 [9]: 15.1 µM (active)
- IC50 [10]: 4.94 µM (active)
- IC50 [11]: > 80 µM (inactive)

SMILES: COc1ccc(OC)c(Nc2nc(N)nc(CCl)n2)c1
- EC50 (BJ [12]): 15.7 µM (active)
- CC50 (Vero): 7.93 µM (active)
- EC50 (BJ [13]): > 150 µM (inconclusive)
- EC50 (BJ [14]): 0.258 µM (active)
- EC50 (BJ [15]): 4.66 µM (inconclusive)
- EC50 [16]: 2.16 µM (active)

SMILES: CC/C=C\C/C=C\C/C=C\CCCCCCCC(=O)O [LINOLENIC ACID]
- IC50 (Phospholipase A2): 22.3 µM (inactive)
- IC50 (Cysteine protease ATG4B): 15.3 µM (active)
